Values quoted from earlier work as cited in PMC4004541, “PEG-Like Nanoprobes: Multimodal, Pharmacokinetically and Optically Tunable Nanomaterials” (PLoS ONE, 2014).

Parameters: method as in manufacturer's package insert
Settings: humans; ref manufacturer's package insert; cited from earlier work

For `CC1(C)C(/C=C/C=C/C=C/C=C2\N(CCCCS(=O)(=O)O)c3ccc4ccccc4c3C2(C)C)=[N+](CCCCS(=O)(=O)[O-])c2ccc3ccccc3c21` [ICG, indocyanine green], the Blood half-life is given as 2.5 to 3 min.
